The target in this assay is IDO1 (Homo sapiens, UniProt P14902). Description: IDO1 Cellular Assay in HeLa Cells Stimulated with IFNγ. It is filed as cell-based. The note with it: read-out: HeLa Cell Potency, IC50. The procedure: IDO1 Cellular Assay in HeLa Cells Stimulated with IFNγ
HeLa cells were cultured in complete HeLa culture medium (90% EMEM, 10% heat-inactivated fetal bovine serum) and expanded to about 1×10^9 cells. The cells were then collected and frozen down at 1×10^7 cells/vial in 1 mL frozen medium (90% complete HeLa culture medium, 10% DMSO).
Compounds to be tested were serially diluted in ten 3-fold steps in DMSO starting from 10 mM DMSO stocks in Echo low volume plate(s). Compound dilutions or DMSO alone were then dispensed from the dilution plate(s) into Greiner black 384-well assay plate(s) (catalog #781086, 50 nL/well) using an Echo 550 acoustic liquid handler (Labcyte).
Frozen HeLa cells were thawed and transferred into HeLa assay medium (99% complete HeLa culture medium, 1% Pen/Strep) with 20 mL medium/vial of cells. The cells were spun down at 250 g in a table top centrifuge for 5 min and suspended in same volume of HeLa assay medium. The cells were then counted and adjusted to a density of 2×10^5 cells/mL in HeLa assay medium. Sterile L-tryptophan were added to the cells with final concentration of 300 uM L-tryptophan. A small aliquot (2 mL/plate) of HeLa cells were set aside and were not treated with IFNγ, to serve as the Max-E control.
HeLa cells with and without IFNγ were dispensed to the respective wells of 384-well assay plates containing the compounds. The plates were incubated for about 48 hours at a 37° C., 5% CO2 incubator. Afterwards, 12 μL of 0.5 M methyl isonipecotate in dimethyl sulfoxide were added into each well and the plates were sealed and incubated at 37° C. without CO2 overnight. The plates were centrifuged for 1 min at 200×g. The resulting fluorescence was measured in a Spectramax plate reader (Molecular Devices) with a 400 nm excitation filter and a 510 nm emission filter.
The fluorescence intensity of each well was corrected for the background observed in wells with non-IFNγ-treated cells and was expressed as a fraction of the intensity observed in wells of IFNγ-treated cells and DMSO only. Potencies were calculated by linear least squares fit to the four parameter logistic IC50 equation.

This is an account of results in patent publication US12264134B2 (Merck Sharp & Dohme LLC, priority 2018, dated 2025).

Sequence of IDO1 (P14902 whole entry): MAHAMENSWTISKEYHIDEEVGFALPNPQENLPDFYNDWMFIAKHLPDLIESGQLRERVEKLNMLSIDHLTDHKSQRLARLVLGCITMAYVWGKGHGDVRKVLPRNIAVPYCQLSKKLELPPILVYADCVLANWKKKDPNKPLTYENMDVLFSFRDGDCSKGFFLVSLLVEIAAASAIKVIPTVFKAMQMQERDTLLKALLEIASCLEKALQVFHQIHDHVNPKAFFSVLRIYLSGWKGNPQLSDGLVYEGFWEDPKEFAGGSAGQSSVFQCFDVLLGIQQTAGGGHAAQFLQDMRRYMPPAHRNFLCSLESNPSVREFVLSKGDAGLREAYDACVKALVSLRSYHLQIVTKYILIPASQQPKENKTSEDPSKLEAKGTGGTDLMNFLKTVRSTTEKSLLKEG

Usually IC50 stands for the point on the concentration scale where inhibition reaches its midpoint. For `Cc1c(C(F)F)cccc1N1CCN(C(=O)Cn2nc(C(=O)N3CCN(C(=O)CO)CC3)c3c2C[C@H]2C[C@@H]32)CC1` [Example 344, 1-(4-(3-(difluoromethyl)-2-methylphenyl)piperazin-1-yl)-2-((3bR,4aR)-3-(4-(2-hydroxyacetyl)piperazine-1-carbonyl)-3b,4,4a,5-tetrahydro-1H-cyclopropa[3,4]cyclopenta[1,2-c]pyrazol-1-yl)ethanone], the IC50 stood at 6.52 nM.
Turning to `Cc1cccc(N2CCN(C(=O)Cn3nc(C(=O)N4CCC(O)(C(F)(F)F)CC4)c4c3CCC4)CC2)c1C` [Example 189, 1-[4-(2,3-dimethylphenyl)piperazin-1-yl]-2-{3-[4-hydroxy-4-(trifluoromethyl)piperidine-1-carbonyl]-5,6-dihydrocyclopenta[c]pyrazol-1(4H)-yl}ethan-1-one], the IC50 was found to be 4.53 nM.
The same measure for `Cc1cccc(N2CCN(C(=O)Cn3nc(C(=O)N4CCOCC4CO)c4c3C[C@H]3C[C@@H]43)CC2)c1C` (stereo partly drawn) [Example 267, 1-[4-(2,3-dimethylphenyl)piperazin-1-yl]-2-{(3bR,4aR)-3-[3-(hydroxymethyl)morpholine-4-carbonyl]-3b,4,4a,5-tetrahydro-1H-cyclopropa[3,4]cyclopenta[1,2-c]pyrazol-1-yl}ethan-1-one]: 7.91 nM.
In the case of `Cc1cccc(N2CCN(C(=O)Cn3nc(C(=O)N4CC[C@@H](CO)C4)c4c3C[C@H]3C[C@@H]43)CC2)c1C` [Example 252, 1-[4-(2,3-dimethylphenyl)piperazin-1-yl]-2-{(3bR,4aR)-3-[(3R)-3-(hydroxymethyl)pyrrolidine-1-carbonyl]-3b,4,4a,5-tetrahydro-1H-cyclopropa[3,4]cyclopenta[1,2-c]pyrazol-1-yl}ethan-1-one], the IC50 worked out at 1.5 nM.
Consider `Cc1cccc(N2CCN(C(=O)Cn3nc(C(=O)N4CCC(F)(F)[C@@H](O)C4)c4c3CCC4)CC2)c1C` (single isomer, unassigned) [Example 213, 2-[3-[(3S or 3R)-4,4-difluoro-3-hydroxy-piperidine-1-carbonyl]-5,6-dihydro-4H-cyclopenta[c]pyrazol-1-yl]-1-[4-(2,3-dimethylphenyl)piperazin-1-yl]ethanone], for which the 50% inhibitory concentration (IC50) was determined as 90.9 nM.
As for `Cc1cccc(N2CCN(C(=O)Cn3nc(C(=O)N4C[C@@H](C)O[C@@H](C)C4)c4c3CC[C@@H](C(F)(F)F)C4)CC2)c1C` [Example 295, 2-[(5R)-3-[(2R,6S)-2,6-dimethylmorpholine-4-carbonyl]-5-(trifluoromethyl)-4,5,6,7-tetrahydro-1H-indazol-1-yl]-1-[4-(2,3-dimethylphenyl)piperazin-1-yl]ethan-1-one], the IC50 amounted to 6.69 nM.
For the compound `Cc1cccc(N2CCN(C(=O)Cn3nc(C(=O)N4CCC5(CCCN5)CC4)c4c3CCC4)CC2)c1C` [Example 177, 2-[3-(1,8-diazaspiro[4.5]decane-8-carbonyl)-5,6-dihydrocyclopenta[c]pyrazol-1(4H)-yl]-1-[4-(2,3-dimethylphenyl)piperazin-1-yl]ethan-1-one], the IC50 was found to be 405 nM.
Turning to `Cc1cccc(N2CCN(C(=O)Cn3nc(C(=O)N4CC[C@@H](N)[C@H](F)C4)c4c3CCC4)CC2)c1C` [Example 207, [(3R,4R)-1-[1-[2-[4-(2,3-dimethylphenyl)piperazin-1-yl]-2-oxo-ethyl]-5,6-dihydro-4H-cyclopenta[c]pyrazole-3-carbonyl]-3-fluoro-4-piperidyl]ammonium;formate], the IC50 amounted to 28 nM.
In the case of `Cc1cccc(N2CCN(C(=O)Cn3nc(C(=O)N4CCC(O)C(F)(F)C4)c4c3CCC4)CC2)c1C` (stereo not drawn) [Example 149, 2-[3-(3,3-difluoro-4-hydroxypiperidine-1-carbonyl)-5,6-dihydrocyclopenta[c]pyrazol-1(4H)-yl]-1-[4-(2,3-dimethylphenyl)piperazin-1-yl]ethan-1-one], the half-inhibitory concentration (IC50) was 3.96 nM.
The same measure for `Cc1cccc(N2CCN(C(=O)Cn3nc(C(=O)N4CCC5(CC4)CC(=O)N(C)C5)c4c3CCC4)CC2)c1C` [Example 121, 8-(1-{2-[4-(2,3-dimethylphenyl)piperazin-1-yl]-2-oxoethyl}-1,4,5,6-tetrahydrocyclopenta[c]pyrazole-3-carbonyl)-2-methyl-2,8-diazaspiro[4.5]decan-3-one]: 17.1 nM; for `Cc1cccc(N2CCN(C(=O)Cn3nc(C(=O)N4CCC(O)CC4(C)C)c4c3C[C@H]3C[C@@H]43)CC2)c1C` (stereo partly drawn) [Example 216, 1-[4-(2,3-dimethylphenyl)piperazin-1-yl]-2-[(3bR,4aR)-3-(4-hydroxy-2,2-dimethylpiperidine-1-carbonyl)-3b,4,4a,5-tetrahydro-1H-cyclopropa[3,4]cyclopenta[1,2-c]pyrazol-1-yl]ethan-1-one]: 7.25 nM.
The same measure for `Cc1cccc(N2CCN(C(=O)Cn3nc(C(=O)N4CCC(F)(CO)C4)c4c3CCC4)CC2)c1C` (stereo not drawn) [Example 300, 1-[4-(2,3-dimethylphenyl)piperazin-1-yl]-2-{3-[3-fluoro-3-(hydroxymethyl)pyrrolidine-1-carbonyl]-5,6-dihydrocyclopenta[c]pyrazol-1(4H)-yl}ethan-1-one]: 16.9 nM; for `Cc1cccc(N2CCN(C(=O)Cn3nc(C(=O)N4CC5(CO)CC4C5)c4c3CCC4)CC2)c1C` [Example 301, 1-[4-(2,3-dimethylphenyl)piperazin-1-yl]-2-{3-[4-(hydroxymethyl)-2-azabicyclo[2.1.1]hexane-2-carbonyl]-5,6-dihydrocyclopenta[c]pyrazol-1(4H)-yl}ethan-1-one]: 17.1 nM; for `Cc1cccc(N2CCN(C(=O)Cn3nc(C(=O)N4CC[C@@H](N5CCC(O)CC5)[C@@H](F)C4)c4c3CC(F)(F)CC4)CC2)c1C` (stereo in doubt) [Example 24, 2-[6,6-difluoro-3-[rac-(3S,4R)-3-fluoro-4-(4-hydroxy-1-piperidyl)piperidine-1-carbonyl]-5,7-dihydro-4H-indazol-1-yl]-1-[4-(2,3-dimethylphenyl)piperazin-1-yl]ethanone]: 195 nM.
The result for `Cc1cccc(N2CCN(C(=O)Cn3nc(C(=O)N4CCC(O)C5CCCCC54)c4c3CCC4)CC2)c1C` (stereo not drawn) [Example 112, 1-[4-(2,3-dimethylphenyl)piperazin-1-yl]-2-[3-(4-hydroxyoctahydroquinoline-1(2H)-carbonyl)-5,6-dihydrocyclopenta[c]pyrazol-1(4H)-yl]ethan-1-one] reads 3.6 nM; that for `Cc1cccc(N2CCN(C(=O)Cn3nc(C(=O)N4CC[C@@H](N)[C@@H](F)C4)c4c3CCC4)CC2)c1C` [Example 214, [(3S,4R)-1-[1-[2-[4-(2,3-dimethylphenyl)piperazin-1-yl]-2-oxo-ethyl]-5,6-dihydro-4H-cyclopenta[c]pyrazole-3-carbonyl]-3-fluoro-4-piperidyl]ammonium;formate], 105 nM.
As for `Cc1cccc(N2CCN(C(=O)Cn3nc(C(=O)N4CCOC(CO)C4)c4c3CCC4)CC2)c1C` (stereo not drawn) [Example 156, 1-[4-(2,3-dimethylphenyl)piperazin-1-yl]-2-{3-[2-(hydroxymethyl)morpholine-4-carbonyl]-5,6-dihydrocyclopenta[c]pyrazol-1(4H)-yl}ethan-1-one], the IC50 was determined as 29.3 nM.
For the compound `Cc1cccc(N2CCN(C(=O)Cn3nc(C(=O)N4CCC(C)(O)CC4)c4c3CCC4)CC2)c1C` [Example 82, 1-[4-(2,3-dimethylphenyl)piperazin-1-yl]-2-[3-(4-hydroxy-4-methylpiperidine-1-carbonyl)-5,6-dihydrocyclopenta[c]pyrazol-1(4H)-yl]ethan-1-one], the IC50 came to 2.75 nM.
The same measure for `O=C(Cn1nc(C(=O)N2CCC(O)CC2)c2c1CCC2)N1CCN(C2CCc3ccccc32)CC1` (single isomer, unassigned) [Example 436, 1-(4-(2,3-dihydro-1H-inden-1-yl)piperazin-1-yl)-2-(3-(4-hydroxypiperidine-1-carbonyl)-5,6-dihydrocyclopenta[c]pyrazol-1(4H)-yl)ethanone]: 22.8 nM.
The same measure for `Cc1cccc(N2CCN(C(=O)Cn3nc(C(=O)N4C[C@@H](C)O[C@@H](C)C4)c4c3C[C@@H]3C[C@H]43)CC2)c1C` [Example 299, 2-{(3bS,4aS)-3-[(2R,6S)-2,6-dimethylmorpholine-4-carbonyl]-3b,4,4a,5-tetrahydro-1H-cyclopropa[3,4]cyclopenta[1,2-c]pyrazol-1-yl}-1-[4-(2,3-dimethylphenyl)piperazin-1-yl]ethan-1-one]: 15.1 nM; for `Cc1cccc(N2CCN(C(=O)Cn3nc(C(=O)N4CCC5(CC4)NC(=O)NC5=O)c4c3CCC4)CC2)c1C` [Example 133, 8-(1-{2-[4-(2,3-dimethylphenyl)piperazin-1-yl]-2-oxoethyl}-1,4,5,6-tetrahydrocyclopenta[c]pyrazole-3-carbonyl)-1,3,8-triazaspiro[4.5]decane-2,4-dione]: 141 nM.
